Assay type in all cases: in vivo, mouse
The test system of test [1] is animal models of osteoporosis. Nature of the test: Micro CT bone density in animal models of osteoporosis. Conditions: OVX mice, 50 μg/kg i.p. twice a day for 4 weeks; femur microCT; compared to PBS. The protocol: To make an osteoporosis model, 10-18 12 weeks old female mice per group underwent ovarian ablation. A week later, 50 μg/kg of NPY(21-28), NPY D^25(21-28), NPY D^26(21-28), NPY D^25,26(21-28), Osteopep2, NPY and 100 μl of PBS(Gibco) were intraperitoneally administered twice a day for 4 weeks at 12 hour intervals. Alendronate (Sigma), used as a competitive drug, was intraperitoneally administered once a week for 4 weeks at a dose of 50 μg/kg. As a control group, only Sham model of osteoporosis was performed by subcutaneous dissection of female mouse. Mice were placed in experimental groups using the Block randomization method, and all mouse experiments were approved through the Kyungpook National University Institutional Animal Care and Use Committee. The femurs were separated from the mouse and refrigerated in 80% ethanol, and in order to measure change of bone density, the bone volume/total volume and trabecular thickness were measured by analyzing the area between 0.7 mm and 2.3 mm from the growth plate baseline with the Quantum FX microCT Imaging System. Femurs were separated from mice after the last administration of NPY (21-28) at 4 weeks. To determine the change of bone density, bone density (bone volume/total volume) and bone tissue thickness (trabecular thickness) were measured with the Quantum FX microCT Imaging System. Femurs were separated from mice after the last administration of NPY D^25(21-28), NPY D^26(21-28), and NPY D^25,26(21-28) at 4 weeks. To determine the change of bone density, bone density (bone volume/total volume) and bone tissue thickness (trabecular thickness) were measured with the Quantum FX microCT Imaging System.

The test system of test [2] is myelopoiesis stem cells in the bone marrow. In words: Flow cytometry analysis (FACs) of stem cells in bone marrow of osteoporosis animal models. Conditions: OVX mice, 50 μg/kg i.p. twice a day for 4 weeks; bone marrow 1 hour after last dose. The protocol: (§1) To make an osteoporosis model, 10-18 12 weeks old female mice per group underwent ovarian ablation. A week later, 50 μg/kg of NPY(21-28), NPY D^25(21-28), NPY D^26(21-28), NPY D^25,26(21-28), Osteopep2, NPY and 100 μl of PBS(Gibco) were intraperitoneally administered twice a day for 4 weeks at 12 hour intervals. Alendronate (Sigma), used as a competitive drug, was intraperitoneally administered once a week for 4 weeks at a dose of 50 μg/kg. As a control group, only Sham model of osteoporosis was performed by subcutaneous dissection of female mouse. Mice were placed in experimental groups using the Block randomization method, and all mouse experiments were approved through the Kyungpook National University Institutional Animal Care and Use Committee.
To examine the changes in the number of myelopoiesis stem cells in the bone marrow of the mouse, the bone marrows of mice were collected and analyzed by FACs using five antibodies such as Lineage, Sca-1, c-kit, CD150, and CD48 as markers of myelopoiesis stem cells. For the analysis of myelopoiesis stem cell, bone marrow collected from the tibias and the femurs in the animal models of osteoporosis injected with each peptide was removed from red blood cells with ammonium chloride solution (Stem Cell Technologies, Inc. 1:4). […] The remaining cells were reacted for 30 minutes at 4° C. using Sca-1-PECY7, c-kit-APC, CD150-PE, and CD48-FITC (BD science) antibodies, and then were analyzed by LSRII (BD science) flow cytometry.
In order to investigate whether the NPY (21-28) of the present invention affects the blood release of myelopoiesis stem cells in the animal models of osteoporosis, the following experiments were carried out according to the methods of Examples 1-1, 1-3, 1-4, and 1-5. […] Weight change was measured weekly, and bone marrow and blood were collected one hour after the last dose at 4 weeks, and the release of myelopoiesis progenitor and stem cells into blood was analyzed. […]

Test [3] has as its system osteoblasts in bone marrow. In words: H & E staining of osteoblasts in bone marrow of osteoporosis animal models. Conditions: OVX mice, 50 μg/kg i.p. twice a day for 4 weeks; compared to PBS. On the procedure:
as §1
The femurs were separated from the mice and fixed in 4% paraformaldehyde for 24 hours, and tissue was decalcified in 10% EDTA for 5 weeks. It was then dehydrated with a series of diluted alcohols, paraffinized, and prepared into […] paraffin sections.
For H & E staining, the deparaffinized sections were stained with Harris hematoxyline for 8 minutes, washed with distilled water, and stained with Eosin for 1 minute.
Histomorphometric analysis was performed using the OsteoMeasure program (Extensive interactive Bone Histomorphometry Analysis System).
After the last administration of 4 weeks of NPY (21-28), the femurs were separated from the mice, and the number of osteoblasts in bone marrow was measured by H & E staining.
After the last administration of 4 weeks of NPY D^25(21-28), NPY D^26(21-28), and NPY D^25,26(21-28), the femurs were separated from the mice and the number of osteoblasts in bone marrow was measured by H & E staining.

“Also recorded” adds a separate entry of the source. Non-standard residues stand in square brackets, D forms with d. No end group written: not given here.

On to YSALRHYI [NPY (21-28)], for which, in test [1], the “bone tissue thickness (trabecular thickness)” value (from here on “bone tissue thickness”) was “better than that of the Osteopep2 and NPY”; the “percentage of bone density (BV/TV)” value was “better than that of the Osteopep2 and NPY”. Besides, the “number of myelopoiesis stem cells remaining in the bone marrow (FACs)” value in test [2] is “reduced”. In test [3], the “number of osteoblast (Number of osteoblast/Bone surface)” value was “increased; also recorded: better than that of Osteopep2” and the “osteoblast surface (Osteoblast surface/Bone surface)” value is on record as “increased; also recorded: better than that of Osteopep2”.

Turning to “NPY D^25(21-28): peptide in which arginine, the fifth amino acid of the amino acid sequence of NPY (21-28), is modified to D-type (YSAL[dR]HYI)”, in test [1], the “bone tissue thickness” value is “increased; also recorded: equal to or higher than that of NPY (21-28)” and the “percentage of bone density (BV/TV)” value is on record as “increased; also recorded: equal to or higher than that of NPY (21-28)”. The “number of myelopoiesis stem cells remaining in the bone marrow (FACs)” value in test [2] was “reduced”. Also, in test [3], the “number of osteoblast (Number of osteoblast/Bone surface)” value is on record as “increased” and the “osteoblast surface (Osteoblast surface/Bone surface)” value was “increased”.

For the substance “NPY D^25,26(21-28): peptide in which both the fifth and sixth amino acids of NPY (21-28) are modified to D-form (YSAL[dR][dH]YI)”, in test [1], the “bone tissue thickness” value is on record as “increased; also recorded: equal to or higher than that of NPY (21-28); also recorded: best effect” and the “percentage of bone density (BV/TV)” value is listed as “increased; also recorded: equal to or higher than that of NPY (21-28); also recorded: best effect”. In test [2], the “number of myelopoiesis stem cells remaining in the bone marrow (FACs)” value is “reduced”. In test [3], the “number of osteoblast (Number of osteoblast/Bone surface)” value was “increased” and the “osteoblast surface (Osteoblast surface/Bone surface)” value is recorded as “increased”.

For the origin of these results see US11279744B2, “Neuropeptide Y fragment capable of releasing hematopoietic stem cells into blood and treating osteoporosis” (Kyungpook National University Industry-Academic Cooperation …, priority 2017, dated 2022).
